According to the supplement of paper PMC4858399:
Counter-ions that a name gives are not always drawn.

Assays:
Conditions in all cases: exposure time 48 h
[1] = system: Caenorhabditis elegans N2; assay: AC50 for larval growth inhibition (Hill fit); higher = less potent
Outline: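 C. elegans N2 L1 larvae, synchronised and plated at 50 per well in 96-well plates, were exposed for 48 h at 20°C to 0.5–200 µM chemical in K-medium with killed OP50 and 1% DMSO. Log-transformed extinction from a COPAS Biosort served as worm size, averaged per well. Wells containing at least 10 worms entered the fit. A constrained Hill fit by weighted genetic-algorithm regression yielded the AC50, censored when out of range.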

[2] = system: Caenorhabditis elegans N2; assay: mean nematode size ln(EXT) after 48 h, plate-adjusted (DMSO control set to 6) (ln(EXT), control-adjusted); higher = larger nematodes / less growth inhibition
Outline: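 A growth model removed debris from Biosort extinction readings taken on each worm. These worms were synchronised C. elegans N2 L1 larvae, 50 per well in 4–6 wells per treatment, grown for 48 h at 20°C in K-medium with killed OP50, 1% DMSO and 0.5–200 µM chemical. Readings were natural-logged and averaged by well to give mean size. On each plate, the vehicle control mean was subtracted and 6 was added.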

[3] = system: Caenorhabditis elegans N2; assay: lowest effective concentration for larval growth inhibition (size below effect threshold); higher = less potent
Outline: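 C. elegans N2 L1 larvae (50 per 96-well) were grown 48 h at 20°C in K-medium with killed bacteria, 1% DMSO and 0.5, 1, 5, 10, 50, 100 or 200 µM chemical. The Biosort measured per-worm extinction as size, and these were log-transformed into well means. The lowest effective concentration is the first dose where the plate-adjusted mean size drops under the 5.665 threshold and stays under it at higher doses.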

| Structure (SMILES) | AC50 for larval growth inhibition [1] [µM] | mean nematode size ln(EXT) (ln) ([2]; 0.5 µM) | mean nematode size ln(EXT) (ln) ([2]; 1 µM) | mean nematode size ln(EXT) (ln) ([2]; 5 µM) | mean nematode size ln(EXT) (ln) ([2]; 10 µM) | mean nematode size ln(EXT) (ln) ([2]; 50 µM) | mean nematode size ln(EXT) (ln) ([2]; 100 µM) | mean nematode size ln(EXT) (ln) ([2]; 200 µM) | lowest effective concentration [3] [µM] |
| --- | --- | --- | --- | --- | --- | --- | --- | --- | --- |
| CC(=O)S[C@H](C(=O)N[C@H]1Cc2ccccc2[C@H]2CCC[C@@H](C(=O)O)N2C1=O)C(C)C [Ilepatril] | > 200 | 5.89 | 5.83 | 5.76 | 5.88 | 5.84 | 5.8 | 5.58 | 200 |
| CC(C)COC(=O)CCCCC(=O)OCC(C)C [Diisobutyl adipate] | 53.6 | 5.93 | 5.89 | 5.73 | 5.85 | 5.74 | 4.35 | 5.38 | 100 |
| CC(C)N1C(=O)N(c2ccccc2)CS/C1=N\C(C)(C)C [Buprofezin] | 181 | 5.88 | 5.75 | 5.68 | 5.8 | 5.93 | 6.04 | 3.51 | 200 |
| CCCCCCCC/C=C\CCCCCCCC(=O)OC[C@@H](O)[C@H]1OC[C@H](O)[C@H]1O [Sorbitan, mono-(9Z)-9-octadecenoate] | > 200 | 5.92 | 5.88 | 5.92 | 5.89 | 5.89 | 5.83 | 5.34 | 200 |
| CCCCC(CC)CN1C(=O)C2C3C=CC(C3)C2C1=O (mixture of isomers) [MGK] | 185 | 5.99 | 5.99 | 5.97 | 5.98 | 5.81 | 5.84 | 4.3 | 200 |
| COC(=O)c1ccccc1O [Methyl salicylate] | > 200 | 5.89 | 5.86 | 5.82 | 5.75 | 5.81 | 5.78 | 5.26 | 200 |
| CC(C)=CCC/C(C)=C\CO [cis-3,7-Dimethyl-2,6-octadien-1-ol] | > 200 | 5.8 | 5.76 | 5.79 | 5.75 | 5.78 | 5.69 | 5.63 | 200 |
| CCc1cc(SCc2sc(-c3ccc(C(F)(F)F)cc3)nc2CN2CCN(c3ccc(OC)cc3)CC2)ccc1OCC(=O)O | 9.23 | 6 | 5.67 | 5.57 | 4.69 | 4.47 | 4.29 | 3.99 | 5 |
| C[C@]12CCC(=O)C=C1CC[C@@H]1[C@@H]2CC[C@]2(C)C(=O)CC[C@@H]12 [Androstenedione] | > 200 | 5.85 | 5.91 | 5.86 | 5.99 | 5.89 | 5.84 | 5.66 | 200 |
| O=C(O)[C@@H]1[C@H](C(=O)O)[C@H]2CC[C@@H]1O2 [Endothal] | > 200 | 5.86 | 5.85 | 5.91 | 5.82 | 5.56 | 5.71 | 5.15 | 200 |
| CSc1nc(NC(C)C)nc(NC(C)C)n1 [Prometryn] | > 200 | 5.83 | 5.76 | 5.87 | 6 | 5.79 | 5.86 | 5.37 | 200 |
| CCOP(=S)(OCC)SCn1c(=O)oc2cc(Cl)ccc21 [Phosalone] | 9.77 | 5.76 | 5.7 | 5.97 | 4.73 | 4.26 | 4.06 | 3.72 | 10 |
| CCCCCCCC1CCC(=O)O1 (stereo not drawn) [5-Heptyldihydro-2(3H)-furanone] | 182 | 5.94 | 5.81 | 5.79 | 5.79 | 5.76 | 5.87 | 4.09 | 200 |
| CCCOc1nn(C(=O)NS(=O)(=O)c2ccccc2C(=O)OC)c(=O)n1C [Propoxycarbazone-sodium] | > 200 | 5.79 | 5.97 | 6.22 | 6.16 | 5.99 | 5.96 | 5.38 | 200 |
| O=S(=O)(O)C(F)(F)C(F)(F)C(F)(F)C(F)(F)C(F)(F)C(F)(F)C(F)(F)C(F)(F)F [Perfluorooctane sulfonic acid] | 17.4 | 5.78 | 5.91 | 5.28 | 5.06 | 4.32 | 4.28 | 3.33 | 5 |
| CCCCCCCCCC(=O)O [Decanoic acid] | > 200 | 5.89 | 5.86 | 5.85 | 5.87 | 5.85 | 5.68 | 5.66 | 200 |
| NC(=O)N(O)[C@@H]1COc2cc(OCc3ccccc3)ccc21 | > 200 | 5.86 | 5.87 | 5.82 | 5.77 | 5.84 | 5.81 | 5.59 | 200 |
| CN(C)c1ccc(C(=O)c2ccc(N(C)C)cc2)cc1 [Michler's ketone] | > 200 | 5.78 | 5.87 | 5.83 | 5.78 | 5.82 | 5.88 | 5.58 | 200 |
| CCCCN1C(=O)[C@@H]([C@H](O)C2CCCCC2)NC(=O)C12CCN(Cc1ccc(Oc3ccc(C(=O)O)cc3)cc1)CC2 [Aplaviroc hydrochloride] | > 200 | 5.87 | 5.82 | 5.8 | 5.88 | 5.87 | 5.74 | 5.55 | 200 |
| Cc1cnc(C2=NC(=O)C(C)(C(C)C)N2)c(C(=O)O)c1 (stereo not drawn) [Imazapic] | 79.6 | 5.98 | 6.06 | 6.04 | 6.23 | 5.45 | 4.31 | 3.54 | 50 |
| O=[N+]([O-])c1cc(C(F)(F)F)c(Cl)c([N+](=O)[O-])c1Nc1ncc(C(F)(F)F)cc1Cl [Fluazinam] | 31.6 | 6.05 | 6.17 | 5.81 | 6.15 | 3.61 | 3.85 | 3.23 | 50 |
| CC(C1CC1)C(O)(Cn1cncn1)c1ccc(Cl)cc1 (stereo not drawn) [Cyproconazole] | > 200 | 5.92 | 5.92 | 5.85 | 5.99 | 6.17 | 6.33 | 5.59 | 200 |
| C=CCOC(Cn1ccnc1)c1ccc(Cl)cc1Cl (stereo not drawn) [Imazalil] | > 200 | 5.91 | 6.17 | 6.07 | 5.99 | 5.83 | 5.74 | 4.6 | 200 |

| Structure (SMILES) | AC50 for larval growth inhibition [1] [µM] | mean nematode size ln(EXT) (ln) ([2]; 0.5 µM) | mean nematode size ln(EXT) (ln) ([2]; 1 µM) | mean nematode size ln(EXT) (ln) ([2]; 5 µM) | mean nematode size ln(EXT) (ln) ([2]; 10 µM) | mean nematode size ln(EXT) (ln) ([2]; 50 µM) | mean nematode size ln(EXT) (ln) ([2]; 100 µM) | mean nematode size ln(EXT) (ln) ([2]; 200 µM) | lowest effective concentration [3] [µM] |
| --- | --- | --- | --- | --- | --- | --- | --- | --- | --- |
| CCCCCCCCOC(=O)c1ccc(C(=O)OCCCCCCCC)c(C(=O)OCCCCCCCC)c1 [Tri (n-octyl) Trimellitate] | > 200 | 5.86 | 5.93 | 5.95 | 5.85 | 5.91 | 5.92 | 5.64 | 200 |
| Cn1cnc([N+](=O)[O-])c1Sc1ncnc2[nH]cnc12 [Azathioprine] | > 200 | 5.89 | 5.89 | 5.93 | 5.86 | 5.89 | 5.84 | 5.36 | 200 |
| O=C(Oc1ccc(Br)cc1)N1CCN2CCC1CC2 [4-bromophenyl 1,4-diazabicyclo[3.2.2]nonane-4-carboxylate] | > 200 | 5.84 | 5.83 | 5.81 | 5.83 | 5.65 | 5.6 | 5.33 | 50 |
| COP(=O)(OC)OC(Br)C(Cl)(Cl)Br (stereo not drawn) [Naled] | 95.8 | 5.83 | 5.69 | 5.51 | 5.53 | 4.87 | 4.66 | 3.88 | 5 |
| CCCCCCCCn1sccc1=O [Octhilinone] | 34.9 | 5.47 | 5.54 | 5.56 | 5.58 | 4.2 | 3.68 | 3.36 | ≤ 0.5 |
| CCCCCCCCCCCCCN1CC(C)OC(C)C1 (stereo not drawn) [Tridemorph] | 174 | 5.89 | 5.94 | 5.84 | 5.85 | 5.73 | 5.49 | 4.26 | 100 |
| CCOP(=S)(Oc1cnc(C(C)(C)C)nc1)OC(C)C (stereo not drawn) [Tebupirimfos] | 46.5 | 6 | 6.01 | 5.89 | 5.76 | 4.5 | 3.66 | 3.56 | 50 |
| CCC(C)c1ccc(O)cc1 (stereo not drawn) [4-(Butan-2-yl)phenol] | 142 | 6.03 | 6.09 | 6.07 | 6.08 | 6.05 | 6.02 | 5.52 | 200 |
| CCC(C)c1cc([N+](=O)[O-])cc([N+](=O)[O-])c1O (stereo not drawn) [Dinoseb] | > 200 | 6.02 | 5.96 | 5.94 | 5.91 | 5.82 | 5.56 | 5.04 | 100 |
| COc1cc(Cl)c(OC)cc1Cl [Chloroneb] | > 200 | 5.75 | 5.71 | 5.58 | 5.7 | 5.96 | 5.97 | 5.47 | 200 |
| N#Cc1c(Cl)c(Cl)c(Cl)c(C#N)c1Cl [Chlorothalonil] | 193 | 5.66 | 5.94 | 5.95 | 5.95 | 5.88 | 5.85 | 4.4 | 200 |
| O=C(c1ccccc1)c1ccccc1 [Benzophenone] | > 200 | 5.86 | 6.01 | 5.94 | 5.89 | 5.79 | 5.66 | 4.65 | 100 |
| CCN(CC)C(=O)c1cc(S(=O)(=O)Cc2ccccc2)c(N2CCC(c3ccccc3)CC2)cc1N(CC)CCN(C)C | 72.6 | 5.74 | 5.7 | 5.67 | 5.57 | 4.82 | 4.3 | 3.47 | 10 |
| COP(=O)(OC)SCn1c(=O)oc2cc(Cl)cnc21 [Azamethiphos] | > 200 | 6.07 | 5.94 | 5.91 | 5.93 | 5.88 | 5.75 | 5.57 | 200 |
| CCCCC=O [Pentanal] | 185 | 5.98 | 5.93 | 5.9 | 6 | 6.05 | 6.02 | 5.56 | 200 |
| CC/C(=C(\c1ccccc1)c1ccc(OCCN(C)C)cc1)c1ccccc1 [Tamoxifen citrate salt] | 10.9 | 5.96 | 6 | 5.82 | 5.01 | 3.9 | 3.68 | – | 10 |
| CCCCCCCCCCCCCCCO [1-Pentadecanol] | > 200 | 5.76 | 5.96 | 5.83 | 5.8 | 5.59 | 5.49 | 5.3 | 50 |
| CC(C)OC(=O)C(C)(C)Oc1ccc(C(=O)c2ccc(Cl)cc2)cc1 [Fenofibrate] | 121 | 5.83 | 5.81 | 5.75 | 5.61 | 5.19 | 4.62 | 4.22 | 10 |
| CCC(=O)Nc1ccc(Cl)c(Cl)c1 [Propanil] | > 200 | 5.8 | 5.75 | 5.7 | 5.93 | 6 | 5.96 | 5.04 | 200 |
| Oc1cccc2cccnc12 [8-Hydroxyquinoline] | > 200 | 5.89 | 5.92 | 5.91 | 5.83 | 5.78 | 5.72 | 5.56 | 200 |
| NCc1cccc(C2CCN(C(=O)c3ccc(C#Cc4ccccc4F)o3)CC2)c1 | 31.6 | 5.96 | 5.71 | 5.61 | 5.42 | 4.45 | 3.28 | – | 5 |
| Brc1ccc(Oc2ccccc2)cc1 [p-Bromodiphenyl-ether] | 52.5 | 5.7 | 5.75 | 5.55 | 5.54 | 4.74 | 4.03 | 3.65 | 5 |
